Laboratory results reported in a melting point compilation (Tetko et al.; mined from patent text by program, amines drawn as free bases though some values may be those of a salt).

Row | melting point | SMILES
1 | 129 to 130 °C | CN1C(=O)CCC2(C)c3ccc(SCc4cc5ccccc5cn4)cc3CCC12 (single isomer, unassigned; (+))
2 | 113 to 114 °C | Cc1c(C)c(N2Cc3ccccc3C2)c(C)c2c1OC(C)(C)C2c1ccc(C(C)C)cc1 (configuration not stated)
3 | 173 to 176 °C | O=c1ccn(C(OC2CCCCO2)c2ccccn2)cc1 (configuration not stated)
4 | 289 to 291 °C | COc1ccc2c(c1)C(O)=C(C(=O)Nc1cncc(Cl)n1)N(C)S2(=O)=O
5 | 200 to 202 °C | O=C(Nc1ccc2nc(CN3CCN=C3Cc3ccccc3)ccc2c1)c1ccc(-c2ccc(F)cc2)cc1
6 | 107 to 109 °C | CCCCC(=O)NC1CCN(CCNC(=O)c2nn(C(C)C)c3ccccc23)CC1
7 | 114 to 115 °C | CON(C)C(=O)c1cccc(-c2nc3sccn3c2-c2ccnc(N[C@@H]3CCCN(S(=O)(=O)c4ccc(Cl)cc4)C3)n2)c1
8 | 156 to 157 °C | COc1ccc(-c2ccc(Cl)nn2)c(O)c1
9 | 115 to 116 °C | N#Cc1cnc2ccc(/C=C/CCN3CCOCC3)cc2c1Nc1ccc(Cl)cc1Cl
10 | > 315 °C | CCCn1c(=O)n2c(-c3ccc(C(=O)O)cc3)nnc2c2c1ncn2C
11 | 85 to 92 °C | COc1ccc2c(c1F)CSCC2=O
12 | 134 to 137 °C | O=c1c2c(Cc3ccc(OC(F)(F)F)cc3)n[nH]c2c2cccnc2n1-c1cccc(C(F)(F)F)c1
13 | 288 to 289 °C | CC1(C)OC(=O)Nc2ccc(-c3cc(C#N)cc(C#N)c3)cc21
14 | 276 °C | O=C1N(c2cc(Cl)cc(Cl)c2)C(=O)C2(Cc3ccc(-c4cccnc4)cc3)CCCCN12 (configuration not stated)
15 | 144 °C | C#CCn1c2ccccc2c2sccc(=O)c21
16 | 243 to 245 °C | COc1cc(NC(=O)CNC(=O)c2ccccc2)ccc1-c1cnco1
17 | 82 to 84 °C | CC(=NOCCOc1ccc(CC2SC(=O)NC2=O)cc1)c1cccc(Cl)c1 (configuration not stated)
18 | 277 °C | O=c1c(-c2cccc(F)c2)coc2cc(O)c(O)cc12
19 | 168 to 170 °C | CC(C)(C)OC(=O)N1CCC(n2cc(-c3ccc(Oc4ccccc4)cc3)c3c(N)ncnc32)C1 (configuration not stated)
20 | 121 to 124 °C | CCc1nc2c(cnn2CC)c(NC2CCOCC2)c1CNC(=O)c1cccc(C(=O)NCc2ccc(C)c(-c3cccc(CN4CCN(C)CC4)c3)c2)c1
21 | 160 °C | CCCCc1nc(SCC)c(CO)n1Cc1ccc(-c2ccccc2C(=O)O)cc1
22 | 122 °C | CCOC(=O)N1CCC(n2c(=O)n(C)c3cc(Cl)ccc32)CC1
23 | 194 °C | CCOC(=O)N1CCC(=C2c3ccsc3C=Cn3ccnc32)CC1

Row | melting point | SMILES
24 | 97 to 99 °C | COc1ccc(CCNC2CCCc3c2ccc(=O)n3C)cc1 (configuration not stated)
25 | 173 to 176 °C | CCCc1nc2c(N)nc3cc(-c4cccc(NC(C)=O)c4)ccc3c2s1
26 | 172 to 175 °C | COCCC1(C(=O)N[C@@H](Cc2ccc(NC(=O)c3cc(C#N)ccc3Cl)cc2)C(=O)OC)CCCC1
27 | 149 to 152 °C | O=Cc1ccc2c(=O)c3ccccc3ccc2c1
28 | 134 to 136 °C | CSCc1ccc2ncnc(Nc3cccc(C)c3)c2c1
29 | 200 to 202 °C | N#CCCN1C(=O)C2(COc3cc4c(cc32)OCO4)c2ccccc21 (configuration not stated)
30 | 141 to 142 °C | CN1C(=O)CCc2c1ccc(Sc1cccc(C3(C)CC(O)CCO3)c1)c2F (configuration not stated)
31 | 209 to 210 °C | FC(F)(F)c1cccc(N2CCC(N=Cc3cnc4ccccc4c3)=N2)c1
32 | 126 to 128 °C | COC(=O)C1CCc2cc(C(=O)c3ccccc3)c(OC)cc21 (configuration not stated)
33 | 79 to 84 °C | CCCCCN1C(=O)C(CCC#N)(NC(=O)c2ccc(Cl)c(Cl)c2)c2ccccc21 (configuration not stated)
34 | 156 to 158 °C | O=C(c1cc(Br)c(O)c(Br)c1)c1c(Cc2ccccc2)oc2ccccc12
35 | 120 to 121 °C | CC(C)(C)OC(=O)N1CCC(C(=O)Nc2ccccc2Oc2ccc(Cl)cc2Cl)CC1
36 | 150 to 152 °C | COc1ccc(C(O)CN2c3nc(-c4ccncc4)cc(=O)n3CCC2c2ccccc2)cc1 (configuration not stated)
37 | 99 to 100 °C | O=Cc1sccc1Sc1ccccc1
38 | 103 to 104 °C | FC(F)(F)c1cc(CO[C@@H]2CCCN(Cc3ccco3)[C@@H]2c2ccccc2)cc(C(F)(F)F)c1 (relative stereo)
39 | 239 °C | CN(C(=O)CCc1ccccc1)c1ccc(C(=O)NN=C2C(=O)Nc3ccc(I)cc32)cc1
40 | 135 to 137 °C | CC(O)Cc1cc2c(cc1C(=NNc1ccc(Cl)nn1)c1ccc([N+](=O)[O-])cc1)OCO2 (configuration not stated)
41 | 180 to 182 °C | CON=Cc1ccc2c(c1)c1c(n2Cc2cccc(F)c2)CCC(NC(=O)C(C)C)C1 (configuration not stated)
42 | 161 to 162 °C | COc1ccc(-c2nc(NC(=N)N3CCN(C)CC3)sc2-c2ccc(OC)cc2)cc1
43 | 171 to 173 °C | O=C(O)Cc1ccc2c(c1)C(=O)Cc1ccccc1C2
44 | 118 °C | Clc1ccc(C2(CBr)OCC(COc3ccc4ccccc4c3)O2)c(Cl)c1 (configuration not stated)
45 | 105 °C | CO[C@]1(c2cc(F)cc(Sc3ccc(/C(C)=N/O)cc3)c2)CCO[C@@H](C)C1
46 | 145 to 147 °C | Cc1c(C)c(N2CCN(c3ncccn3)CC2)c(C)c2c1OC(C)(C)C2

The next lines start with the compound.

Row | SMILES | melting point
47 | COc1c(Cl)ccc(C2=NC(C)(C)CO2)c1SC | 50 to 52 °C
48 | Cc1cccc2c(=O)n(CCCN3CC=C(c4ccc(Cl)cc4)CC3)c(=O)[nH]c12 | 215 to 217 °C
49 | CCCc1nc2c(N)nc(C)c(C)c2n1CCCS(C)(=O)=O | 154 to 155 °C
50 | COC(=O)Cc1nc(-c2ccccc2)c(-c2ccccc2)s1 | 65 to 67 °C
51 | N#CCc1cc(Cl)cc(Cl)c1Cl | 60 to 62 °C
52 | O=C(CC1CCCCC1)N(O)Cc1ccccc1 | 83 to 85 °C
53 | CCCCCCCCCCCCCCOc1ccc(C(=O)Nc2ccc(CO)cc2)cc1 | 140 to 145 °C
54 | O=C(Oc1ccc(Br)cc1)c1ccccc1 | 98 to 100 °C
55 | COc1ccc(CC(Br)C(N)=O)cc1C(=O)NCc1ccc(C(F)(F)F)cc1 (configuration not stated) | 192 to 193 °C
56 | O=C(C=Cc1cccnc1)NCCCCC1CCN(C(Br)(c2ccccc2)C2CCCCC2)CC1 (configuration not stated) | 143 to 145 °C
57 | COc1cccc([C@H]2O[C@H](CC(=O)Nc3ccc4oc(C(=O)O)c(OCC(=O)O)c4c3)C(=O)N(CC(C)(C)CO)c3ccc(Cl)cc32)c1OC | 193 to 196 °C
58 | CCCCNC(=O)NC(=N)c1ccccc1 | 139 to 141 °C
59 | CN(C)c1nnc(SCC(=O)C23CC4CC(CC(C4)C2)C3)s1 | 150 to 151 °C
60 | OC(c1ccc2c(c1)OCCN2)(C(F)(F)F)C(F)(F)F | 119 to 120 °C
61 | CC(C)Cn1nnc2c3ncnc-3c3ccncc3n21 | 181 to 182 °C
62 | Nc1nc2c3ccccc3ccn2n1 | 164 to 165 °C
63 | CCCCCCCCCCCCCC(=O)Nc1ccc(Cl)c(NC2=NN(c3c(Cl)cc(Cl)cc3Cl)C(=O)C2n2ccnc2)c1 (configuration not stated) | 172 to 174 °C
64 | Nc1nc(N2CCC2)c2ncn(C3CC(O)C(CO)C3)c2n1 (single isomer, unassigned; (+)) | 194 to 195 °C
65 | O=c1[nH]cc(-c2cnccn2)cc1Br | > 250 °C
66 | O=C(NCCCCCCOC(=O)N1CCC2(CCCC2)CC1)OC1CCN(C(=O)Oc2cccc(Oc3ccccc3)c2)CC1 | 72 to 120 °C
67 | NC(=O)c1sc2nccc(OC3CCCCCC3)c2c1N | 179 to 180 °C
68 | Cc1nsnc1-n1cc(C(=O)O)c(=O)c2cc(F)c(Cl)nc21 | 247 to 249 °C
69 | CC(C)(C)OC(=O)Nc1cccc(C(=O)OCC#N)c1 | 118 to 119 °C
70 | COC(=O)NC1CCCCC1 | 73 to 74 °C
71 | Nc1ncnc2c1ncn2C1OC(C(O)C(=O)NC2CCCC2)C(O)C1O (configuration not stated) | 155 to 157 °C
72 | Cc1c(C)c2c(c(C)c1N)CC(C)(C)O2 | 110 °C

Row | SMILES | melting point
73 | O=C1C=C(COCc2ccccc2)N=CC1OCc1ccccc1 (configuration not stated) | 103 to 131 °C
74 | NCc1ccc2c(c1)ncn2-c1cccc(-c2cccnc2)c1 | 107 to 110 °C
75 | CCS(=O)(=O)Cc1ccc(Oc2ccc(NC(C)=O)cc2)cc1 | 186 °C
76 | CC(C1CC(c2ccc(C(F)(F)F)cc2)C1)N(O)C(N)=O (configuration not stated) | 147 to 148 °C
77 | CCOC(=O)c1cn(CC)c2nc(C=O)c(OCC)cc2c1=O | 169 to 170 °C
78 | CC(C)(NS(=O)(=O)c1ccc2c(Cl)cnc(Cl)c2c1)C(N)=O | 220 to 222 °C
79 | Clc1nc(NCc2ccc(-c3ccccn3)cc2)c2[nH]cnc2n1 | > 250 °C
80 | CCCCCCCCCCCCCCC1(C(=O)OC)CO1 (configuration not stated) | 47 to 48 °C
81 | COc1cc(COc2nn(-c3ccccc3)cc2C=O)ccc1OCc1nc(-c2cccc(OS(C)(=O)=O)c2)oc1C | 146 to 148 °C
82 | COc1cc2c(cc1OC)-c1c(C#N)sc(=O)n1CC2 | 205 to 207 °C
83 | CCOC(=O)C1CN(C(=O)C(C)(C)C)CCC1=O (configuration not stated) | 46 to 50 °C
84 | CCOc1nc2cccc(C(=O)O)c2n1Cc1ccc(-c2ccccc2)c(-c2nnn[nH]2)c1 | 183 to 185 °C
85 | COc1ccc(C=C(c2ccc(OCc3ccccc3)cc2)N(C)C)cc1 | 60 °C
86 | CCOc1nc(N(C)C)nc(=O)[nH]1 | 215 to 216 °C
87 | CCOC(=O)c1c(CN(CC)CC)nc2sc3c(c2c1-c1ccc(OC)c(OC)c1)CCN(C(=O)OCC)C3 | 119 to 120 °C
88 | CCOC(=O)c1nc2scc(COCc3ccccc3)c2c(=O)[nH]1 | 155 to 156 °C
89 | Cc1nnc2n1-c1ccccc1C(c1ccccc1)=NC2 | 216 to 218 °C
90 | CCCCCCCCCCCC(=O)OC1CC(c2ccccc2)N(O)C(c2ccccc2)C1 (configuration not stated) | 89 to 90 °C
91 | NS(=O)(=O)c1cccc(S(=O)(=O)NC2CC2)c1 | 170 to 174 °C
92 | COc1cc2c(cc1O)CC(C)(C)N(C(=O)c1cc(OC)c(OC)c(OC)c1)C2C (configuration not stated) | 198 to 200 °C
93 | NC(=O)CNC(=O)c1nccc(-c2cccc3cc(Cc4cccc(C(F)(F)F)c4)sc23)n1 | 241 to 242 °C
94 | NCCNc1n[nH]c2ncnc(Nc3cccc(Cl)c3)c12 | 200 °C
95 | CCCCOc1ccc(CCCCCCCCC(=O)O)cc1 | 45 to 48 °C
96 | CCOCc1nc2c(N)nc3ccc(OCc4cccnc4)cc3c2n1CC(C)C | 204 to 206 °C
97 | CCCC(=O)N1N=C(c2ccc(N)cc2)c2cc(Cl)c(Cl)cc2CC1C (configuration not stated) | 193 to 194 °C
